Conditions: for log10 BCF / log10 biotransformation half-life (days): fish

Cc1ccc(O)c(N)c1
melting point: 136 °C

CCCCC(CC)CC
boiling point: 143 °C | melting point: -115 °C

CC[C@H]1CCCC[C@H]1C
boiling point: 154 °C

CCOC(=O)[C@@H](N)CS.Cl
melting point: 124 °C

CC(C)Nc1ccc(Nc2ccccc2)cc1
melting point: 74 °C | ready biodegradability: not readily biodegradable

CC=NNc1ccc([N+](=O)[O-])cc1[N+](=O)[O-]
melting point: 166 °C

CCCC(O)C(=O)O (stereo not drawn)
melting point: 34 °C

CCOC(=O)Cn1c(=O)sc2cccc(Cl)c21
log10 vapour pressure (mmHg): -5.56 | melting point: 79.2 °C

FC(F)I
boiling point: 21.6 °C | melting point: -122 °C

Fc1ccc(I)cc1
boiling point: 183 °C | melting point: -27 °C

CC(COc1ccc(Oc2ccccc2)cc1)Oc1ccccn1 (stereo not drawn)
log10 vapour pressure (mmHg): -5.66 | melting point: 46 °C

O=C1c2ccccc2C(=O)N1CCBr
melting point: 82.5 °C

CCCCCCCCCCCCCCCCCCCCCCCCCCO
melting point: 80 °C | ready biodegradability: readily biodegradable

C=CC/C=C/C/C=C/C/C=C/C
ready biodegradability: not readily biodegradable

SCCS
boiling point: 146 °C | log10 vapour pressure (mmHg): 0.749 | melting point: -41.2 °C

CCOC(=O)/C=C1/SC(N2CCCCC2)C(=O)N1C (stereo not drawn)
melting point: 140 °C

Cc1cc(C)c(Cl)c(O)c1Cl
melting point: 87.5 °C

NC(=O)OCc1ccccc1
melting point: 88 °C

C1=Cc2cccc3cccc1c23
boiling point: 280 °C | log10 Henry constant (atm·m³/mol): -3.94 | log10 Koc (L/kg): 3.75 | log10 biodegradation half-life (days): 1.58 | log10 vapour pressure (mmHg): -2.18 | melting point: 92.5 °C | ready biodegradability: readily biodegradable | log10 BCF: 2.43 | log10 biotransformation half-life (days): 0.52

C1=CCCCCCC1
melting point: -12 °C

C#CCCC(C)C
boiling point: 92 °C | melting point: -125 °C

CNC1=Nc2ccc(Cl)cc2C(c2ccccc2)=[N+]([O-])C1
melting point: 236 °C

Clc1cc(Cl)c2c(c1)Oc1cc(Cl)c(Cl)cc1O2
log10 vapour pressure (mmHg): -8.2 | melting point: 194 °C

CCOC(=O)/C=C(C)/C=C/CC(C)CCCC(C)C (stereo not drawn)
log10 vapour pressure (mmHg): -3.61

COC1=CC(=O)C[C@@H](C)[C@]12Oc1c(Cl)c(OC)cc(OC)c1C2=O
melting point: 220 °C

CC(=O)[C@@]1(O)CC[C@H]2[C@@H]3CCC4=CC(=O)CC[C@]4(C)[C@H]3CC[C@@]21C
melting point: 222 °C

CC=C1CCCC1
boiling point: 115 °C | melting point: -130 °C

CCC#CCCO
boiling point: 163 °C | ready biodegradability: readily biodegradable

ClCC(Cl)(CCl)CCl
boiling point: 211 °C

Nc1ccc([N+](=O)[O-])cc1C(=O)c1ccccc1
melting point: 163 °C

CCN1C(=O)CCC1=O
boiling point: 236 °C | melting point: 26 °C

CCCCCC(=O)OCCCC
boiling point: 208 °C | melting point: -64.3 °C

CC(C)S[C@@H]1O[C@H](CO)[C@H](O)[C@H](O)[C@H]1O
melting point: 121 °C

CNC[C@H](O)[C@@H](O)[C@H](O)[C@H](O)CO
melting point: 128 °C

Oc1cccc(Cl)c1O
melting point: 48.5 °C

CCCN(CCC)C(=O)C(CCC(=O)O)NC(=O)c1ccccc1 (stereo not drawn)
melting point: 144 °C

N#CCCCCCC#N
melting point: -31.4 °C

CO[C@H]1[C@H](O)[C@H](O[C@H]2CC[C@@]3(C=O)[C@H](CC[C@@H]4[C@@H]3CC[C@]3(C)[C@@H](C5=CC(=O)OC5)CC[C@]43O)C2)O[C@@H](C)[C@@H]1O
melting point: 162 °C

Nc1cccc2c(O)nnc(O)c12
melting point: 330 °C

CN1CCc2cc3c(cc2C(=O)Cc2ccc4c(c2C1)OCO4)OCO3
melting point: 208 °C

O=C(O)CS
log10 vapour pressure (mmHg): -1.06 | melting point: -16.5 °C | ready biodegradability: readily biodegradable

CC(C)CN1CCOCC1
boiling point: 181 °C | ready biodegradability: not readily biodegradable | log10 BCF: 0.25

C=C(Br)CBr
boiling point: 141 °C | log10 vapour pressure (mmHg): 0.88

Cc1ccccc1I
boiling point: 212 °C | log10 vapour pressure (mmHg): -0.344

Fc1ccc(NC(=S)Nc2cc(Cl)cc(Cl)c2)cc1
melting point: 164 °C

Cc1nc2cc(Cl)ccc2s1
melting point: 69 °C

C=COCC
boiling point: 35.5 °C | log10 vapour pressure (mmHg): 2.71 | melting point: -116 °C

CCCSC
boiling point: 95.6 °C | log10 vapour pressure (mmHg): 1.71 | melting point: -113 °C

O=C1CSC(=O)N1
melting point: 128 °C

NNC(=O)c1ccc(Cl)cc1
melting point: 164 °C

COc1ccc(OC)c([N+](=O)[O-])c1
melting point: 72.5 °C

c1ccc(-c2cccc(-c3ccccn3)n2)nc1
melting point: 90 °C

CCCCCC(CC)CC
boiling point: 166 °C

CC(=O)Oc1cccc2c1C(=O)c1c(OC(C)=O)cc(C(=O)O)cc1C2=O
melting point: 218 °C

O=C(O)C=Cc1cccc(Br)c1
melting point: 178 °C

CC(C)COC(C)OCC(C)C
boiling point: 171 °C

CN(C)CCN(C)CCN(C)C
ready biodegradability: not readily biodegradable

C=CCC1(CC=C)C(=O)NC(=O)NC1=O
melting point: 172 °C

CCCCCCCCCCCCCCCCCC(=O)Nc1ccc(O)cc1
melting point: 134 °C

CC(C)(C)[N+](=O)[O-]
boiling point: 127 °C | log10 vapour pressure (mmHg): 1.08 | melting point: 26.2 °C

O=S1CCCC1
boiling point: 236 °C

Oc1c(Cl)ccc(Cl)c1Cl
melting point: 58 °C

CCC[C@@H](C)S
boiling point: 113 °C | melting point: -169 °C

Oc1nc(O)c2nccnc2n1
melting point: 348 °C

CCOC(=O)C(C)(C)Oc1ccc(Cl)cc1
ready biodegradability: readily biodegradable

COP(=S)(OC)SCn1nnc2ccccc2c1=O
log10 Koc (L/kg): 2.28 | log10 vapour pressure (mmHg): -5.8 | melting point: 73 °C | ready biodegradability: readily biodegradable

CC1(C)CCCC(O)C1 (stereo not drawn)
boiling point: 185 °C | melting point: 11.5 °C

CCOC(=O)CC(C)C(=O)OCC (stereo not drawn)
boiling point: 218 °C

Cn1c([N+](=O)[O-])cnc1COC(N)=O
melting point: 168 °C

COc1c(OC)c(OC(C)=O)c2ccccc2c1OC(C)=O
melting point: 138 °C

CCCC(C)(CC)CCC
boiling point: 161 °C

CC(=O)Oc1ccc([N+](=O)[O-])cc1
melting point: 78 °C

Clc1cc(Cl)c(Cl)c(Cl)c1
log10 Henry constant (atm·m³/mol): -2.8 | log10 Koa: 5.55 | log10 Koc (L/kg): 3.2 | log10 vapour pressure (mmHg): -1.26 | melting point: 54.5 °C | log10 BCF: 3.59

Clc1c(Cl)c(Cl)c(C(Cl)Cl)c(Cl)c1Cl
boiling point: 334 °C | melting point: 120 °C

CC(C)(C)c1nnc(NS(=O)(=O)c2ccc(N)cc2)s1
melting point: 222 °C

COC(=O)c1ccco1
boiling point: 181 °C

O=C(O)c1c(Cl)c(Cl)c(Cl)c(Cl)c1C(=O)O
log10 Koc (L/kg): 3.3

CCN(O)CC
boiling point: 133 °C | log10 vapour pressure (mmHg): 0.526 | melting point: 10 °C | ready biodegradability: not readily biodegradable

CCCCCCCCCCCCCCCC(=O)OCCC
melting point: 20.4 °C

CC1(C)C(C(=O)OC(C#N)c2cccc(Oc3ccccc3)c2)C1(C)C (stereo not drawn)
log10 vapour pressure (mmHg): -5.26 | melting point: 47 °C

Cc1ccccc1C(=O)O
boiling point: 259 °C | log10 vapour pressure (mmHg): -3.18 | melting point: 104 °C | ready biodegradability: readily biodegradable

O=C(CCC(=O)Oc1ccccc1)Oc1ccccc1
boiling point: 330 °C | melting point: 121 °C

CN(C)c1ccc(C(=O)c2ccc(N(C)C)cc2)cc1
log10 Koc (L/kg): 2.21 | melting point: 179 °C | ready biodegradability: not readily biodegradable | log10 BCF: 1.45 | log10 biotransformation half-life (days): -0.77

CCCCc1ccccc1
boiling point: 183 °C | log10 Koc (L/kg): 3.39 | log10 vapour pressure (mmHg): 0.027 | melting point: -87.9 °C | ready biodegradability: not readily biodegradable

CCOC(=O)N(c1ccccc1)c1ccccc1
boiling point: 360 °C | melting point: 72 °C

CCC(CC)=NO
boiling point: 168 °C

CSC#N
boiling point: 133 °C | log10 vapour pressure (mmHg): 1.08 | melting point: -5 °C

Cc1cc(C)nc(C)c1
boiling point: 171 °C | log10 vapour pressure (mmHg): 0.298 | melting point: -46 °C

COc1cc([N+](=O)[O-])c2ncccc2c1
melting point: 159 °C

Brc1cc(Br)c(Oc2ccc(Br)c(Br)c2)c(Br)c1
log10 BCF: 6.29

Clc1ccc2c(Cl)ccc(Cl)c2c1Cl
log10 Koa: 8.4

O=Cc1cccnc1
log10 Henry constant (atm·m³/mol): -6.82

COc1ccnc2ccccc12
boiling point: 245 °C | melting point: 41 °C

Cc1cc(OC(=O)N(C)C)n(-c2ccccc2)n1
melting point: 50 °C

O=C(O)c1ccnc(C(=O)O)c1C(=O)O
melting point: 250 °C

OCCCc1ccccn1
boiling point: 260 °C | melting point: 34 °C

Cc1ncc(CO)c(CO)c1O
melting point: 160 °C

O=C(c1ccccc1)c1ccc(O)cc1O
melting point: 144 °C | ready biodegradability: not readily biodegradable

CN(C)C
boiling point: 2.87 °C | log10 Henry constant (atm·m³/mol): -3.98 | log10 vapour pressure (mmHg): 3.21 | ready biodegradability: readily biodegradable

C[C@]12CCC(=O)C[C@@H]1CC[C@@H]1[C@@H]2CC[C@@]2(C)[C@H]1CC[C@]2(C)O
melting point: 192 °C

CCC(C)(C)C
boiling point: 49.7 °C | log10 biodegradation half-life (days): 1.28 | log10 vapour pressure (mmHg): 2.5 | melting point: -99 °C

Cc1ccc(C(=O)c2ccccc2C(=O)O)cc1
melting point: 146 °C

CCCCCCOCCCCCC
boiling point: 223 °C | log10 vapour pressure (mmHg): -1.34

CCC=CC(C)C
log10 vapour pressure (mmHg): 1.88

CC(=O)C1CC1
boiling point: 111 °C | log10 Henry constant (atm·m³/mol): -4.99 | melting point: -68.3 °C

CP(C)(=O)O
melting point: 92 °C

O=C1OCCO1
boiling point: 248 °C | log10 vapour pressure (mmHg): -2.01 | melting point: 39.5 °C | ready biodegradability: readily biodegradable

O=C(OCC(O)CO)c1ccccc1Nc1ccnc2c(C(F)(F)F)cccc12 (stereo not drawn)
melting point: 180 °C

Cc1ccncc1
boiling point: 145 °C | log10 Henry constant (atm·m³/mol): -5.22 | log10 vapour pressure (mmHg): 0.761 | melting point: 3.66 °C

c1cncnc1
boiling point: 124 °C | melting point: 22 °C | ready biodegradability: not readily biodegradable

OCC(F)(F)C(F)(F)C(F)(F)C(F)(F)C(F)(F)C(F)(F)C(F)(F)C(F)(F)C(F)(F)C(F)F
ready biodegradability: not readily biodegradable

CCOC(=O)C=CCC(=O)OCC
boiling point: 237 °C

C[C@H]1[C@H](C)CC[C@]2(C)CC[C@]3(C)C(=CC[C@@H]4[C@@]5(C)CC[C@H](O)C(C)(C)[C@@H]5CC[C@]43C)[C@H]12
melting point: 186 °C

CCCCCCCCCC(=O)Cl
melting point: -34.5 °C

CCCCCCC1CCCCC1
boiling point: 224 °C | log10 vapour pressure (mmHg): -0.943 | melting point: -43 °C | log10 biotransformation half-life (days): 0.7

O=C(O)c1cc(F)ccc1F
melting point: 133 °C

c1ccc(-c2ncc[nH]2)cc1
boiling point: 340 °C | melting point: 149 °C

NNC(=O)c1ccc(O)cc1
melting point: 265 °C

Cc1ncc(COP(=O)(O)O)c(C=O)c1O.O
melting point: 142 °C

CCCCCCCCCCCC(CCCCCCCC)c1ccccc1 (stereo not drawn)
melting point: 17.9 °C

CN(C)CC/C=C1\c2ccccc2CSc2ccccc21
melting point: 56 °C

COc1ccco1
boiling point: 110 °C

CCCCC(CC)COP(=O)(O)CC(CC)CCCC (stereo not drawn)
ready biodegradability: not readily biodegradable

Cc1ncc([N+](=O)[O-])n1CC(O)CCl (stereo not drawn)
melting point: 77.5 °C

O=S(=O)(O)c1ccc(O)cc1
ready biodegradability: readily biodegradable

O=C(O)c1cc(F)c(F)c(F)c1F
melting point: 86 °C

CC(C)COS(=O)OCC(C)C
boiling point: 210 °C

Reference: the OPERA property sets (Mansouri et al. 2018)
